{"source": "paper PMC8371902", "about": "“Phase 1 study of M2698, a p70S6K/AKT dual inhibitor, in patients with advanced cancer” (Journal of Hematology & Oncology, 2021)", "system": "advanced metastatic cancer", "assay": "Antitumor activity: tumor response (RECIST 1.1) and progression-free survival", "format": "in vivo, human", "procedure": "Tumor response was assessed using RECIST 1.1. As for drugs with cytostatic antitumor activity, disease control rate was defined as the sum of stable disease (SD) and objective response rates; SD was considered clinically beneficial. Progression-free survival (PFS) was measured from treatment initiation until disease progression or death and was estimated using the Kaplan–Meier method.", "key": {"[1]": {"conditions": "All patients, M2698 monotherapy 15 mg, N=3"}, "[2]": {"conditions": "All patients, M2698 monotherapy 30 mg, N=3"}, "[3]": {"conditions": "All patients, M2698 monotherapy 60 mg, N=6"}, "[4]": {"conditions": "All patients, M2698 monotherapy 75 mg, N=4"}, "[5]": {"conditions": "All patients, M2698 monotherapy 110 mg, N=4"}, "[6]": {"conditions": "All patients, M2698 monotherapy 160 mg, N=6"}, "[7]": {"conditions": "All patients, M2698 monotherapy 200 mg, N=3"}, "[8]": {"conditions": "All patients, M2698 monotherapy 240 mg, N=17"}, "[9]": {"conditions": "All patients, M2698 monotherapy 320 mg, N=12"}, "[10]": {"conditions": "All patients, M2698 monotherapy 380 mg, N=4"}, "[11]": {"conditions": "All patients, M2698 monotherapy, Total of all dose levels, N=62"}, "[12]": {"conditions": "PAM+ patients with confounding markers, M2698 monotherapy 15 mg, N=1"}, "[13]": {"conditions": "PAM+ patients with confounding markers, M2698 monotherapy 60 mg, N=2"}, "[14]": {"conditions": "PAM+ patients with confounding markers, M2698 monotherapy 75 mg, N=1"}, "[15]": {"conditions": "PAM+ patients with confounding markers, M2698 monotherapy 110 mg, N=1"}, "[16]": {"conditions": "PAM+ patients with confounding markers, M2698 monotherapy 160 mg, N=2"}, "[17]": {"conditions": "PAM+ patients with confounding markers, M2698 monotherapy, Total of all dose levels, N=7"}, "[18]": {"conditions": "PAM+ patients without confounding markers, M2698 monotherapy 15 mg, N=2"}, "[19]": {"conditions": "PAM+ patients without confounding markers, M2698 monotherapy 30 mg, N=2"}, "[20]": {"conditions": "PAM+ patients without confounding markers, M2698 monotherapy 60 mg, N=2"}, "[21]": {"conditions": "PAM+ patients without confounding markers, M2698 monotherapy 75 mg, N=1"}, "[22]": {"conditions": "PAM+ patients without confounding markers, M2698 monotherapy 110 mg, N=2"}}}
{"compound": "NC(=O)c1cccc2c(N[C@H](CN3CCC3)c3ccc(Cl)c(C(F)(F)F)c3)ncnc12", "note": "[M2698]", "values": [{"measurement": "Patients with stable disease", "setting": "54 PAM+ patients, monotherapy", "value": 40.7, "unit": "%"}, {"measurement": "Median PFS", "setting": "[1]", "value": 4.1, "unit": "months"}, {"measurement": "Response, NE", "setting": "[1]", "value": "0 (0.0) n (%)"}, {"measurement": "Response, PD", "setting": "[1]", "value": "1 (33.3) n (%)"}, {"measurement": "Response, SD at wk 6", "setting": "[1]", "value": "2 (66.7) n (%)"}, {"measurement": "Median PFS", "setting": "[2]", "value": 4.1, "unit": "months"}, {"measurement": "Response, NE", "setting": "[2]", "value": "0 (0.0) n (%)"}, {"measurement": "Response, PD", "setting": "[2]", "value": "0 (0.0) n (%)"}, {"measurement": "Response, SD at wk 6", "setting": "[2]", "value": "3 (100) n (%)"}, {"measurement": "Median PFS", "setting": "[3]", "value": 1.4, "unit": "months"}, {"measurement": "Response, NE", "setting": "[3]", "value": "1 (16.7) n (%)"}, {"measurement": "Response, PD", "setting": "[3]", "value": "4 (66.7) n (%)"}, {"measurement": "Response, SD at wk 6", "setting": "[3]", "value": "1 (16.7) n (%)"}, {"measurement": "Median PFS", "setting": "[4]", "value": 1.4, "unit": "months"}, {"measurement": "Response, NE", "setting": "[4]", "value": "0 (0.0) n (%)"}, {"measurement": "Response, PD", "setting": "[4]", "value": "3 (75.0) n (%)"}, {"measurement": "Response, SD at wk 6", "setting": "[4]", "value": "1 (25.0) n (%)"}, {"measurement": "Median PFS", "setting": "[5]", "value": 1.3, "unit": "months"}, {"measurement": "Response, NE", "setting": "[5]", "value": "1 (25.0) n (%)"}, {"measurement": "Response, PD", "setting": "[5]", "value": "2 (50.0) n (%)"}, {"measurement": "Response, SD at wk 6", "setting": "[5]", "value": "1 (25.0) n (%)"}, {"measurement": "Median PFS", "setting": "[6]", "value": 1.6, "unit": "months"}, {"measurement": "Response, NE", "setting": "[6]", "value": "0 (0.0) n (%)"}, {"measurement": "Response, PD", "setting": "[6]", "value": "4 (66.7) n (%)"}, {"measurement": "Response, SD at wk 6", "setting": "[6]", "value": "2 (33.3) n (%)"}, {"measurement": "Median PFS", "setting": "[7]", "value": 4.1, "unit": "months"}, {"measurement": "Response, NE", "setting": "[7]", "value": "0 (0.0) n (%)"}, {"measurement": "Response, PD", "setting": "[7]", "value": "1 (33.3) n (%)"}, {"measurement": "Response, SD at wk 6", "setting": "[7]", "value": "2 (66.7) n (%)"}, {"measurement": "Median PFS", "setting": "[8]", "value": 2.0, "unit": "months"}, {"measurement": "Response, NE", "setting": "[8]", "value": "3 (17.6) n (%)"}, {"measurement": "Response, PD", "setting": "[8]", "value": "8 (47.1) n (%)"}, {"measurement": "Response, SD at wk 6", "setting": "[8]", "value": "6 (35.3) n (%)"}, {"measurement": "Median PFS", "setting": "[9]", "value": 2.8, "unit": "months"}, {"measurement": "Response, NE", "setting": "[9]", "value": "2 (16.7) n (%)"}, {"measurement": "Response, PD", "setting": "[9]", "value": "5 (41.7) n (%)"}, {"measurement": "Response, SD at wk 6", "setting": "[9]", "value": "5 (41.7) n (%)"}, {"measurement": "Median PFS", "setting": "[10]", "value": 6.2, "unit": "months"}, {"measurement": "Response, NE", "setting": "[10]", "value": "2 (50.0) n (%)"}, {"measurement": "Response, PD", "setting": "[10]", "value": "0 (0.0) n (%)"}, {"measurement": "Response, SD at wk 6", "setting": "[10]", "value": "2 (50.0) n (%)"}, {"measurement": "Median PFS", "setting": "[11]", "value": 2.3, "unit": "months"}, {"measurement": "Response, NE", "setting": "[11]", "value": "9 (14.5) n (%)"}, {"measurement": "Response, PD", "setting": "[11]", "value": "28 (45.2) n (%)"}, {"measurement": "Response, SD at wk 6", "setting": "[11]", "value": "25 (40.3) n (%)"}, {"measurement": "Response, NE", "setting": "[12]", "value": "0 (0.0) n (%)"}, {"measurement": "Response, PD", "setting": "[12]", "value": "0 (0.0) n (%)"}, {"measurement": "Median PFS", "setting": "[13]", "value": 1.4, "unit": "months"}, {"measurement": "Response, NE", "setting": "[13]", "value": "1 (50.0) n (%)"}, {"measurement": "Response, PD", "setting": "[13]", "value": "1 (50.0) n (%)"}, {"measurement": "Median PFS", "setting": "[14]", "value": 1.4, "unit": "months"}, {"measurement": "Response, NE", "setting": "[14]", "value": "0 (0.0) n (%)"}, {"measurement": "Response, PD", "setting": "[14]", "value": "1 (100) n (%)"}, {"measurement": "Median PFS", "setting": "[15]", "value": 1.3, "unit": "months"}, {"measurement": "Response, NE", "setting": "[15]", "value": "0 (0.0) n (%)"}, {"measurement": "Response, PD", "setting": "[15]", "value": "1 (100) n (%)"}, {"measurement": "Median PFS", "setting": "[16]", "value": 1.4, "unit": "months"}, {"measurement": "Response, NE", "setting": "[16]", "value": "0 (0.0) n (%)"}, {"measurement": "Response, PD", "setting": "[16]", "value": "2(100.0) n (%)"}, {"measurement": "Median PFS", "setting": "[17]", "value": 1.4, "unit": "months"}, {"measurement": "Response, NE", "setting": "[17]", "value": "1 (14.3) n (%)"}, {"measurement": "Response, PD", "setting": "[17]", "value": "5 (71.4) n (%)"}, {"measurement": "Median PFS", "setting": "[18]", "value": 4.1, "unit": "months"}, {"measurement": "Response, NE", "setting": "[18]", "value": "0 (0.0) n (%)"}, {"measurement": "Response, PD", "setting": "[18]", "value": "1 (50.0) n (%)"}, {"measurement": "Response, SD at wk 6", "setting": "[18]", "value": "1 (50.0) n (%)"}, {"measurement": "Median PFS", "setting": "[19]", "value": 10.3, "unit": "months"}, {"measurement": "Response, NE", "setting": "[19]", "value": "0 (0.0) n (%)"}, {"measurement": "Response, PD", "setting": "[19]", "value": "0 (0.0) n (%)"}, {"measurement": "Response, SD at wk 6", "setting": "[19]", "value": "2 (100.0) n (%)"}, {"measurement": "Median PFS", "setting": "[20]", "value": 1.4, "unit": "months"}, {"measurement": "Response, NE", "setting": "[20]", "value": "0 (0.0) n (%)"}, {"measurement": "Response, PD", "setting": "[20]", "value": "2(100.0) n (%)"}, {"measurement": "Response, SD at wk 6", "setting": "[20]", "value": "0 (0.0) n (%)"}, {"measurement": "Median PFS", "setting": "[21]", "value": 2.8, "unit": "months"}, {"measurement": "Response, NE", "setting": "[21]", "value": "0 (0.0) n (%)"}, {"measurement": "Response, PD", "setting": "[21]", "value": "0 (0.0) n (%)"}, {"measurement": "Response, SD at wk 6", "setting": "[21]", "value": "1(100.0) n (%)"}, {"measurement": "Median PFS", "setting": "[22]", "value": 15.1, "unit": "months"}, {"measurement": "Response, NE", "setting": "[22]", "value": "1 (50.0) n (%)"}, {"measurement": "Response, PD", "setting": "[22]", "value": "0 (0.0) n (%)"}, {"measurement": "Response, SD at wk 6", "setting": "[22]", "value": "1 (50.0) n (%)"}]}
